Literature values in US5017369A, “Film-forming teat sealer for prevention of mastitis and use thereof” (priority 1989, dated 1991).

Conditions: gluconate salt dissolved in water

- pH of water solutions: ~7.0
Compound: N=C(NCCCCCCNC(=N)NC(=N)Nc1ccc(Cl)cc1)NC(=N)Nc1ccc(Cl)cc1 [chlorhexidine gluconate, bis(p-chlorophenyl-diguanido)hexane]
